Measured values taken from ChEMBL document CHEMBL1201862, “PubChem BioAssay data set” (2004).
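48-hour exposure; five concentrations; linearly interpolated endpoints. GI50: concentration for 50% inhibition of growth.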 Calls of active or inactive are those of the source. Rule as the data show it: active = GI50 up to about 1.1 µM and inactive = higher.

Experiments:
Experiment in all cases: growth of human tumour cells (NCI), 48 h
786-0 = system: 786-0
A498 = system: A498
A549 = system: A549
ACHN = system: ACHN
BT-549 = system: BT-549
CAKI-1 = system: CAKI-1
CCRF-CEM = system: CCRF-CEM
COLO 205 = system: COLO 205
DU-145 = system: DU-145
EKVX = system: EKVX
HCC 2998 = system: HCC 2998
HCT-116 = system: HCT-116
HCT-15 = system: HCT-15
HL-60 = system: HL-60
HOP-62 = system: HOP-62
HOP-92 = system: HOP-92
HT-29 = system: HT-29
Hs-578T = system: Hs-578T
IGROV-1 = system: IGROV-1
K562 = system: K562
KM12 = system: KM12
LOX IMVI = system: LOX IMVI
M14 = system: M14
MCF7 = system: MCF7
MDA-MB-231 = system: MDA-MB-231
MDA-MB-435 = system: MDA-MB-435
MDA-N = system: MDA-N
MOLT-4 = system: MOLT-4
Malme-3M = system: Malme-3M
NCI-H226 = system: NCI-H226
NCI-H23 = system: NCI-H23
NCI-H460 = system: NCI-H460
NCI-H522 = system: NCI-H522
NCI/ADR-RES = system: NCI/ADR-RES
OVCAR-3 = system: OVCAR-3
OVCAR-4 = system: OVCAR-4
OVCAR-5 = system: OVCAR-5
OVCAR-8 = system: OVCAR-8
PC-3 = system: PC-3
RPMI-8226 = system: RPMI-8226
RXF 393 = system: RXF 393
SF-268 = system: SF-268
SF-295 = system: SF-295
SF-539 = system: SF-539
SK-MEL-28 = system: SK-MEL-28
SK-MEL-2 = system: SK-MEL-2
SK-MEL-5 = system: SK-MEL-5
SK-OV-3 = system: SK-OV-3
SN12C = system: SN12C
SNB-19 = system: SNB-19
SNB-75 = system: SNB-75
SR = system: SR
SW-620 = system: SW-620
T47D = system: T47D
TK-10 = system: TK-10
U-251 = system: U-251
UACC-257 = system: UACC-257
UACC-62 = system: UACC-62
UO-31 = system: UO-31

COC(=O)c1ccc(CCC2=CC(=O)C(Br)=CC2=O)cc1 was tested, and the GI50 (786-0) was 19.8 µM (inactive), the GI50 (A498) was 20.2 µM (inactive) and the GI50 (A549) was 19.4 µM (inactive). The GI50 (ACHN) was 12.6 µM (inactive), the GI50 (BT-549) was 11.6 µM (inactive) and the GI50 (CAKI-1) was 13.6 µM (inactive). The GI50 (CCRF-CEM) was 0.615 µM (active), the GI50 (COLO 205) was 6.78 µM (inactive) and the GI50 (DU-145) was 18.1 µM (inactive). For the same molecule, the GI50 (EKVX) was 19 µM (inactive), the GI50 (HCC 2998) was 15.7 µM (inactive) and the GI50 (HCT-116) was 16 µM (inactive). For the same molecule, the GI50 (HCT-15) was 14.5 µM, the GI50 (HL-60) was 2 µM (inactive) and the GI50 (HOP-62) was 17.8 µM (inactive). The GI50 (HOP-92) was 5.14 µM (inactive), the GI50 (HT-29) was 16.7 µM (inactive) and the GI50 (Hs-578T) was 20.4 µM (inactive). For the same molecule, the GI50 (IGROV-1) was 15 µM (inactive), the GI50 (K562) was 2.21 µM (inactive) and the GI50 (KM12) was 15.2 µM (inactive). For the same molecule, the GI50 (LOX IMVI) was 17.5 µM (inactive), the GI50 (M14) was 14.7 µM (inactive) and the GI50 (MCF7) was 16.5 µM (inactive). The GI50 (MDA-MB-231) was 18.6 µM (inactive), the GI50 (MDA-MB-435) was 16.1 µM (inactive) and the GI50 (MDA-N) was 16 µM (inactive). The GI50 (MOLT-4) was 2.47 µM (inactive), the GI50 (Malme-3M) was 16.9 µM (inactive) and the GI50 (NCI-H226) was 14.7 µM (inactive). The GI50 (NCI-H23) was 15.1 µM (inactive), the GI50 (NCI-H460) was 18.2 µM (inactive) and the GI50 (NCI-H522) was 2.68 µM (inactive). The GI50 (NCI/ADR-RES) was 18.7 µM (inactive), the GI50 (OVCAR-3) was 15.3 µM (inactive) and the GI50 (OVCAR-4) was 17.2 µM (inactive). For the same molecule, the GI50 (OVCAR-5) was 18.8 µM (inactive), the GI50 (OVCAR-8) was 16.3 µM (inactive) and the GI50 (PC-3) was 16.9 µM (inactive). The GI50 (RPMI-8226) was 10.2 µM (inactive), the GI50 (RXF 393) was 18.3 µM (inactive) and the GI50 (SF-268) was 19.8 µM (inactive). The GI50 (SF-295) was 19.5 µM (inactive), the GI50 (SF-539) was 17.8 µM (inactive) and the GI50 (SK-MEL-28) was 16.7 µM (inactive). The GI50 (SK-MEL-2) was 17.1 µM (inactive), the GI50 (SK-MEL-5) was 12.1 µM (inactive) and the GI50 (SK-OV-3) was 17.8 µM (inactive). For the same molecule, the GI50 (SN12C) was 17.5 µM (inactive), the GI50 (SNB-19) was 15.6 µM (inactive) and the GI50 (SNB-75) was 14 µM (inactive). For the same molecule, the GI50 (SR) was 2.97 µM (inactive), the GI50 (SW-620) was 13.6 µM (inactive) and the GI50 (T47D) was 21.5 µM (inactive). For the same molecule, the GI50 (TK-10) was 17.3 µM (inactive), the GI50 (U-251) was 16.7 µM (inactive) and the GI50 (UACC-257) was 15.6 µM (inactive). The GI50 (UACC-62) was 17.8 µM (inactive) and the GI50 (UO-31) was 15.8 µM (inactive).

In the case of Cc1sc2nc3n(c(=O)c2c1C)N=C(c1ccc([N+](=O)[O-])cc1)CS3, the GI50 (786-0) is reported as > 100 µM (inactive), the GI50 (A498) is reported as > 100 µM (inactive) and the GI50 (A549) is reported as > 100 µM (inactive). The GI50 (ACHN) was > 100 µM (inactive), the GI50 (BT-549) was 56.5 µM (inactive) and the GI50 (CAKI-1) was > 100 µM (inactive). For the same molecule, the GI50 (CCRF-CEM) was > 100 µM (inactive), the GI50 (COLO 205) was > 100 µM (inactive) and the GI50 (DU-145) was > 100 µM (inactive). The GI50 (EKVX) was > 100 µM (inactive), the GI50 (HCC 2998) was > 100 µM (inactive) and the GI50 (HCT-116) was > 100 µM (inactive). The GI50 (HCT-15) was greater than 100 µM, the GI50 (HL-60) was > 100 µM (inactive) and the GI50 (HOP-62) was 61.9 µM (inactive). For the same molecule, the GI50 (HOP-92) was > 100 µM (inactive), the GI50 (HT-29) was > 100 µM (inactive) and the GI50 (Hs-578T) was 97.5 µM (inactive). For the same molecule, the GI50 (K562) was > 100 µM (inactive), the GI50 (KM12) was > 100 µM (inactive) and the GI50 (LOX IMVI) was > 100 µM (inactive). For the same molecule, the GI50 (MCF7) was > 100 µM (inactive), the GI50 (MDA-MB-231) was > 100 µM (inactive) and the GI50 (MDA-MB-435) was > 100 µM (inactive). For the same molecule, the GI50 (MDA-N) was > 100 µM (inactive), the GI50 (MOLT-4) was > 100 µM (inactive) and the GI50 (Malme-3M) was > 100 µM (inactive). The GI50 (NCI-H226) was > 100 µM (inactive), the GI50 (NCI-H23) was > 100 µM (inactive) and the GI50 (NCI-H460) was > 100 µM (inactive). For the same molecule, the GI50 (NCI-H522) was > 100 µM (inactive), the GI50 (NCI/ADR-RES) was > 100 µM (inactive) and the GI50 (OVCAR-3) was > 100 µM (inactive). For the same molecule, the GI50 (OVCAR-4) was > 10 µM (inactive), the GI50 (OVCAR-5) was > 100 µM (inactive) and the GI50 (OVCAR-8) was > 100 µM (inactive). For the same molecule, the GI50 (PC-3) was > 100 µM (inactive), the GI50 (RPMI-8226) was > 100 µM (inactive) and the GI50 (RXF 393) was > 100 µM (inactive). For the same molecule, the GI50 (SF-268) was > 100 µM (inactive), the GI50 (SF-295) was > 100 µM (inactive) and the GI50 (SF-539) was > 100 µM (inactive). The GI50 (SK-MEL-28) was > 100 µM (inactive), the GI50 (SK-MEL-5) was > 100 µM (inactive) and the GI50 (SK-OV-3) was > 100 µM (inactive). The GI50 (SN12C) was > 100 µM (inactive), the GI50 (SNB-75) was 83.8 µM (inactive) and the GI50 (SR) was > 100 µM (inactive). For the same molecule, the GI50 (SW-620) was > 100 µM (inactive), the GI50 (T47D) was > 100 µM (inactive) and the GI50 (U-251) was > 100 µM (inactive). The GI50 (UACC-257) was > 100 µM (inactive), the GI50 (UACC-62) was > 100 µM (inactive) and the GI50 (UO-31) was > 100 µM (inactive).
